The numbers were not newly measured in PMC10238757 (Pharmacology Research & Perspectives, 2023), which cites them from elsewhere.

For data set [1] the following is noted: at higher doses; cited from earlier work.
For the next data set, the system named is HIV-1. As to conditions: cited from earlier work.

`C=C(C)[C@@H]1CC[C@]2(NCCN3CCS(=O)(=O)CC3)CC[C@]3(C)[C@H](CC[C@@H]4[C@@]5(C)CC=C(c6ccc(C(=O)O)cc6)C(C)(C)[C@@H]5CC[C@]43C)[C@@H]12` [GSK3532795]: the absorption behaviour result in data set [1] was “plateaus in absorption”. `C=C(C)[C@@H]1CC[C@]2(NCCN3CCS(=O)(=O)CC3)CC[C@]3(C)[C@H](CC[C@@H]4[C@@]5(C)CC=C(C6=CC[C@@](CF)(C(=O)O)CC6)C(C)(C)[C@@H]5CC[C@]43C)[C@@H]12` [GSK3640254, reference compound]: the potency in vitro result in the data set with HIV-1 is “low nanomolar”. Moreover, the absorption behaviour result in data set [1] is on record as “plateaus in absorption”.
